Data set [1] deals with human lymphocytes. The settings on record: human lymphocytes in culture; cited from earlier work.
In data set [2] the test system is TBI. The settings on record: 100 mg/kg, rats; cited from earlier work.
The subject of data set [3] is rat. The settings on record: PubChem.gov, cited from earlier work; for LD50: rat, route not stated.
Data set [4] relates to rat. Kind of data set: LD50 reported by PubChem.gov, rat. The settings on record: for human equivalent of LD50: LD50 divided by 6.2 (rat), times 65 kilograms.
The subject of data set [5] is mice. Kind of data set: LD50 reported by PubChem.gov, human conversion with the mouse factor 12.3. The settings on record: LD50 divided by 12.3, times 65 kilograms.
From the text: Much of the research for toxicity and efficacy studies is preclinical, which necessitates a conversion of preclinical data to human equivalent data for interpretation of implications of preclinical data to clinical studies. […] For conversion of preclinical data from mice to human, divide the mg/kg dosage by 12.3. One would then multiply the result by an approximated average weight in kilograms for human clinical subjects to establish a preliminary clinical dosage. For example, if the preclinical dosage indicating drug efficacy were 100 mg/kg, this dosage would be divided by 12.3 to get 8.13 mg/kg, which would then be multiplied by an average weight in kilograms designated for the clinical study. For an average clinical subject weight of 65 kilograms, the original 100 mg/kg preclinical dosage would translate to 528 mg, which would be the preliminary dosage for clinical studies. For conversion of preclinical data from rat to human, the animal dosage would be divided by 6.2, then multiplied by the average subject weight in kilograms for the clinical study.
To convert this preclinical data to human equivalent data, 2.2 grams divided by 12.3 is 179 mg, times 65 kilograms for a human subject weighing 65 kg is approximately 11.6 grams.
For human equivalency dosage, 100 mg/kg divided by 12.3 is 8.13 mg/kg, times 65 for a 65-kilogram clinical subject is 528 mg/kg. […]
The test system of data set [6] is mice. The settings on record: PubChem.gov, cited from earlier work.
For data set [7], the system named is weight drop contusion TBI. The settings on record: 100 mg/kg to mice after weight drop contusion TBI; cited from earlier work.
The test system of data set [8] is platelets. The settings on record: cited from earlier work.
Data set [9] deals with rats. The settings on record: up to 5 grams per kilogram for 60 days; cited from earlier work.
The test system of data set [10] is mice. The settings on record: up to 5 grams per kilogram for 60 days; cited from earlier work.

Bounds are passed on as bounds.

We go through seven molecules from US20250099382A1, “Colloidal suspension of nutraceutical ingredients to treat traumatic brain injury” (priority 2023, published 2025).

In the case of `Oc1ccc(C=Cc2cc(O)cc(O)c2)cc1` [resveratrol, 3,5,4′-Trihydroxystilbene], the “genetic damage induced by permethrin” value in data set [1] is given as “diminishes genetic damage induced by permethrin”. The “secondary injury from TBI” value in data set [2] is listed as “significantly attenuated secondary injury from TBI”.

For `NCCS(=O)(=O)O` [taurine], in data set [3], the LD50 entry is on record as “greater than 7 grams per kilogram”. Further, the “human equivalent of LD50” value in data set [4] is 74 grams.

For the molecule `Nc1ncnc2c1ncn2[C@@H]1O[C@H](COP(=O)([O-])OP(=O)([O-])OP(=O)([O-])[O-])[C@@H](O)[C@H]1O.[Mg+2].[Mg+2]` [ATP, Adenosine triphosphate magnesium], the LD50 result in data set [3] is reported as “greater than 2 grams per kilogram”. Also, the “human equivalent of LD50” value in [4] is recorded as above 21 grams.

On to `COc1cc(/C=C/C(=O)CC(=O)/C=C/c2ccc(O)c(OC)c2)ccc1O` [curcumin, Curcumin], for which, in data set [5], the “human equivalent of LD50” value is “approximately 10.6 grams”. For the same molecule, in data set [6] (route not stated), the LD50 result is “greater than 2 grams per kilogram of animal weight”. In data set [7], the “recovery after TBI” value is recorded as “Major improvements in recovery were noted”. Also, the “production of thromboxane A2 by platelets” value in data set [8] is “reduced the production of thromboxane A2 by platelets”.

Turning to `CC(=O)O[C@H](CC(=O)[O-])C[N+](C)(C)C` [acetyl L-carnitine, Acetyl L-carnitine], the “LD50, intravenous” value in [3] (intravenous, rat species) is on record as 1,265 mg/kg. Moreover, the “human equivalent dosage of intravenous LD50” value in data set [4] (LD50 divided by 6.2, times 65 for a 65-kilogram human patient) came to 13.2 grams.

`N[C@@H](CCC(=O)N[C@@H](CS)C(=O)NCC(=O)O)C(=O)O` [GSH, Glutathione]: in data set [5], the “human equivalent of intravenous LD50” value is recorded as “approximately 11.6 grams”. Further, the “LD50, intravenous” value in [6] (intravenous) is on record as 2.2 grams per kilogram of animal weight.

In the case of Fulvic acid, the toxicity or genotoxicity entry in data set [9] and in data set [10] was “No toxicity or genotoxicity was found” in each case.
